Consider one molecule from patent US6890951B2, “Treatment of addiction and addiction-related behavior” (Brookhaven Science Associates LLC, priority 1998, dated 2005).

For this test, the system named is extracellular DA in the NACC. Description: Microdialysis: methamphetamine-induced increases in NACC DA. The note with it: Rattus norvegicus. It counts as in vivo, rats. An excerpt: All animals were used under an IACUC-approved protocol and with strict adherence to the NIH guidelines. Adult male Sprague-Dawley rats (200-300 g, Taconic Farms), housed in the animals care facility under 12:12 light/dark conditions, were placed into 6 groups (n=5-9), anesthetized and siliconized guide cannulae were stereotactically implanted into the right NACC (2.0 mm anterior and 1.0 mm lateral to bregms, and 7.0 mm ventral to the cortical surface) at least 4 days prior to study. Microdialysis probes (2.0 mm, Bioanalytical Systems, BAS, West Lafayette, Ind.) were positioned within the guide cannulae and artificial cerebrospinal fluid (ACSF, 155.0 mM NA^−, 1.1 mM Ca^2−, 2.9 mM K^−, 132.76 mM Cl^−, and 0.83 mM Mg^2−) was administered through the probe using a CMA/100 microinfusion pump (BAS) at a flow rate of 2.0 μl/min. Animals were placed in bowls, and probes were inserted and flushed with ACSF overnight. On the day of the study, a minimum of three samples were injected to determine baseline stability. Samples were collected for 20 min. and injected on-line (CMA/160, BAS). The average Dopamine concentration of these three stable samples was defined as control (100%), and all subsequent treatment values were transformed to a percentage of that control. […] The high performance liquid chromatography (HPLC) system consists of a BAS reverse-phase column (3.0 μC-18), a BAS LC-4C electrochemical transducer with a dual/glassy carbon electrode set at 650 mV, a computer that analyzes data on-line using a commercial software package (Chromograph Bioanalytical Systems), and a dual pen chart recorder. The mobile phase (flow rate 1.0 ml/min) consisted of 7.0% methanol, 50 mM sodium phosphate monobasic, 1.0 mM sodium octyl sulfate, and 0.1 mm […], pH 4.0. DA eluted at 7.5 min. Upon completion of the study, animals were decapitated and frozen sections were obtained for probe placement verification.
Methamphetamine at a dose of 1.25 mg/kg i.p. and 2.5 mg/kg i.p. was administered to the animals. It was noted that methamphetamine elevated extracellular DA concentrations in the NACC by approximately 2500% over basal levels, 100 minutes following administration of 2.5 mg/kg and approximately 1500% over basal levels following administration of 1.25 mg/kg (FIG. 6). DA returned to basal levels approximately 200 minutes following administration.

`C=CC(N)CCC(=O)O` (racemic) [GVG, 4-amino-5-hexanoic acid]: the inhibition (usually the percentage by which the read-out fell short of the control) at 300 mg/kg is around 38% and the inhibition at 600 mg/kg is around 58%.
